Values quoted from earlier work in patent US20130224294A1, “DRY PROCESSING OF ATAZANAVIR” (priority 2010, published 2013).

Tests used:
[1] = free base
[2] = at 24±3° C.; base formed by dissociation of the salt in the presence of water

- bioavailability [1]: does not have sufficient bioavailability
- BCS class (high permeability/low solubility): BCS II
- solubility [2]: < 1 µg/mL
SMILES: COC(=O)N[C@H](C(=O)N[C@@H](Cc1ccccc1)[C@@H](O)CN(Cc1ccc(-c2ccccn2)cc1)NC(=O)[C@@H](NC(=O)OC)C(C)(C)C)C(C)(C)C [Atazanavir]
